Source: ChEMBL document CHEMBL1130513, “New hepatoprotective saponins, bupleurosides III, VI, IX, and XIII, from Chinese Bupleuri Radix: Structure-requirements for the cytoprotective activity in primary cultured rat hepatocytes” (1997)

Columns and labels:
Type in all cases: functional
Mus musculus [1] = test: Inhibitory effect on D-GalN/LPS (injected i.p. dose of 350 mg/kg and 10 ug/kg) induced hepatic injury in mice at 10 mg/kg, ip
Mus musculus [2] = test: Inhibitory effect on D-GalN/LPS (injected i.p. dose of 350 mg/kg and 10 ug/kg) induced hepatic injury in mice at 20 mg/kg, ip
Rattus norvegicus [3] = species on record: Rattus norvegicus; test: In vitro inhibitory effect on D-Galactosamine induced cytotoxicity in primary cultured rat hepatocytes at 0.3 ug/mL; details: Hepatocyte
Rattus norvegicus [4] = species on record: Rattus norvegicus; test: In vitro inhibitory effect on D-Galactosamine induced cytotoxicity in primary cultured rat hepatocytes at 1 ug/mL; details: Hepatocyte
Rattus norvegicus [5] = species on record: Rattus norvegicus; test: In vitro inhibitory effect on D-Galactosamine induced cytotoxicity in primary cultured rat hepatocytes at 10 ug/mL; details: Hepatocyte
Rattus norvegicus [6] = species on record: Rattus norvegicus; test: In vitro inhibitory effect on D-Galactosamine induced cytotoxicity in primary cultured rat hepatocytes at 3 ug/mL; details: Hepatocyte
Rattus norvegicus [7] = species on record: Rattus norvegicus; test: In vitro inhibitory effect on D-Galactosamine induced cytotoxicity in primary cultured rat hepatocytes at 30 ug/mL; details: Hepatocyte

| SMILES | s-GOT level (Mus musculus [1]) [Karmen units] | s-GPT level (Mus musculus [1]) [Karmen units] | s-GOT level (Mus musculus [2]) [Karmen units] | s-GPT level (Mus musculus [2]) [Karmen units] | inhibition at 0.3 µg/mL (Rattus norvegicus [3]) [%] | inhibition at 1 µg/mL (Rattus norvegicus [4]) [%] | inhibition at 10 µg/mL (Rattus norvegicus [5]) [%] | inhibition at 3 µg/mL (Rattus norvegicus [6]) [%] | inhibition at 30 µg/mL (Rattus norvegicus [7]) [%] |
| --- | --- | --- | --- | --- | --- | --- | --- | --- | --- |
| C[C@H]1O[C@@H](O[C@H]2CC[C@@]3(C)C(CC[C@]4(C)C3C(=O)C=C3C5CC(C)(C)CC[C@]5(CO)[C@@H](O)C[C@]34C)[C@]2(C)CO)[C@H](O)[C@@H](O[C@@H]2O[C@H](CO)[C@@H](O)[C@H](O)[C@H]2O)[C@H]1O (stereo not given in full) | 7211 | 7887 | 1404 | 1530 | 5.5 | 16.9 | 72.8 | 44.5 | 90.9 |
| C[C@]12CCC(=O)C=C1CCC1[C@@H]2[C@@H](O)C[C@@]2(C)[C@H]1CC[C@]2(O)C(=O)CO (single isomer, unassigned) [HYDROCORTISONE] |  |  | 331 | 202 |  |  |  |  |  |
| C[C@H]1O[C@@H](O[C@H]2CC[C@@]3(C)C(CC[C@]4(C)C3[C@H](O)C=C3C5CC(C)(C)CC[C@]5(CO)[C@@H](O)C[C@]34C)[C@]2(C)CO)[C@H](O)[C@@H](O[C@@H]2O[C@H](CO)[C@@H](O)[C@H](O)[C@H]2O)[C@H]1O (stereo not given in full) | 1261 | 1483 |  |  | 6.8 | 16.7 | 43.1 | 35.6 | 46.5 |
| C[C@H]1O[C@@H](O[C@H]2CC[C@@]3(C)C(CC[C@]4(C)C3[C@H](O)CC3C5=CC(C)(C)CC[C@]5(CO)[C@@H](O)C[C@]34C)[C@]2(C)CO)[C@H](O)[C@@H](O[C@@H]2O[C@H](CO)[C@@H](O)[C@H](O)[C@H]2O)[C@H]1O (stereo not given in full) | 1209 | 1265 |  |  | 15.8 | 39.7 | 69.5 | 59.4 | 64.7 |
